Results reported in patent US9828630B2, “Methods of enhancing genetic diagnosis” (BioLamina AB, priority 2011, dated 2017).
Entries after “also recorded” stand apart in the source; their conditions may differ.

Key:
Akt and MEK1 = experiment: Western blot of inhibitor treated and control cells one hour after plating on LN-521; type: cell-based, human; details: one hour after plating on LN-521, FIG. 18 and 19
Protocol: HS 181 cells were trypsinized into single cell suspension as described above. For inhibition experiments, the cells were kept in O3 medium with blocking antibodies or pathway inhibitors for 30 minutes and then […] cells were plated on 35 mm dishes precoated with the appropriate matrix coating. For other experiments, same number of cells was plated directly after trypsinization. In all cases the cells were allowed to spread for 1 hour at 37° C., 5% CO2. After two washings in ice-cold PBS, the plates with cells were snap frozen in liquid nitrogen and stored at -80° C. To prepare samples for western blots and ELISA, the plates were slowly thawed and kept on ice with 100-150 μl of lysis buffer (50 mM Tris-HCl, pH7.5, 150 mM NaCl, 0.5% deoxycholate, 0.5% SDS, 1% Triton X-100, 1% Igepal, CompleteTM (Roche) and Phospho-StopTM (Roche)) on top. Then, the cells were scraped, pipetted and sheared through a 27 G 3⁄4'' needle. After that, the cell pellets were clarified by centrifugation at 16,100 rcf for 15 minutes at 4° C. For western blots, 4-12% gradient gels were used for SDS electrophoresis and the proteins were transferred to PVDF membranes. The membrane was hybridized with the antibody of interest according to the manufacturer's instructions. […] For the densitometry analysis the films were scanned at 2,400 dpi and analyzed by the […]5500 program (1 D-Multi Line densitometry mode). […]

human ES cells on LN-521 = experiment: Inhibition of survival assay on LN-521 (function blocking antibodies, pathway inhibitors); type: cell-based; details: medium contained bFGF, FIG. 16
Protocol: (§1) The survival assay was performed as described for the cell adhesion assay above, except that the cells were left in the cell incubator for 24 hours. For inhibition of survival assay, the cells were kept in a medium with function blocking antibodies at the concentrations recommended by the manufacturer or pathway inhibitors at concentrations indicated in the text for 30 minutes, and then plated on the coated dishes. All the experiments were performed in quadruplicate.

human ES cells [1] = experiment: Cell survival assay, 24 hours (1 day) after plating from single cell suspension; type: cell-based; details: for survival / attachment of dissociated hES cells 24 hours (one day) after plating: single cell suspension, O3 medium, no ROCK inhibitor
Protocol: (§2) The assay was performed as described (Extracellular Matrix Protocols, 2000). Briefly, 96-well plates were coated by extracellular matrix proteins as described above and blocked by O3 medium containing bovine serum albumin. The ES cells were plated at a cell density of 600 cell/mm^2 upon extracellular matrix-coated plates and were left to adhere for either 1 hour or 1 day at the cell incubator. Non-adherent cells were washed away, and adherent cells were fixed for 20 min by 5% glutaraldehyde, stained by 0.1% Crystal Violet.
as §1
Pluripotent hES cells express α1, α5, β1, β2 and γ1 laminin chains. To compare the adhesion and clonal survival of hES cells plated from single cell suspension to different coating substrata, hES cells growing as monolayers on LN-511 or as clusters on a feeder layer were trypsinized into single cell suspension in O3 medium and plated on cell culture dishes coated with Matrigel, LN-111, LN-511, LN-521 or a mixture of LN-511 and LN-521, in the absence or presence of a ROCK inhibitor (Y-27632) and analyzed after 24 hours.

human ES cells [2] = experiment: Cell adhesion assay, 1 hour after plating on coated plates; type: cell-based
Protocol: as §2
Briefly, 96-well plates were coated by extracellular matrix proteins as described above and blocked by O3 medium containing bovine serum albumin. The ES cells were plated at cell density of 50,000 cells/cm^2 onto extracellular matrix-coated plates and left to adhere for 1 hour in a cell incubator. After that the plates were washed 3 times with the medium to remove the non-adherent cells, and then the adherent cells were fixed for 20 minutes by 5% glutaraldehyde, stained by 0.1% Crystal Violet. (Kebo Lab, Spanga, Sweden, http://www.kebolab.se). After one hour and 3 washes with water, Crystal Violet was extracted with 10% acetic acid and quantified by measuring optical density at 570 nm. All the experiments were performed in quadruplicate.

human ES and iPS cells = details: human ES cells grown on laminin-511; cited from earlier work
mouse ES cells = details: without LIF or feeder cells; cited from earlier work
hES cells = experiment: Clonal survival of individualized hES cells at 250 cells per cm^2; type: cell-based, human; details: laminin-521/E-Cadherin matrix
Protocol: hES cells were plated in mTeSR1 medium on different coatings at a density of 250 cells per cm^2 and monitored after 5 days in culture using an alkaline phosphatase staining kit.
Next, combinations of laminin-521 and E-Cadherin were tested to determine whether the combinations could sustain clonal survival of the cells. Fixed amounts of laminin-521 were used for the cell culture dish coating in combination with titrated E-Cadherin.
Additional tests were performed to test the effects of various modifications to the mTeSR1 medium. A mixture of E-Cadherin to laminin-521 in a ratio of about 1:10 w/w was used to coat the plates. […] Time-lapse photography of the cells confirmed that laminin-521/E-Cadherin coatings facilitated cell survival through proliferation of the single cells, not through the aggregation of different cells.

COc1cccc(-c2cc(=O)c3ccccc3o2)c1N [PD 98059]
efficacy of inhibitor treatment by western blot (Akt and MEK1): confirmed | survival of hES cells 24 hours after plating on LN-521 with pathway inhibitor (human ES cells on LN-521): did not affect the survival that severely

C[C@@H](N)[C@H]1CC[C@H](C(=O)Nc2ccncc2)CC1 [Y-27632]
attachment / survival of hES cells 24 hours after plating in presence of ROCK inhibitor (human ES cells [1]; O3 medium with Y-27632, Matrigel, LN-111, LN-511, LN-521 and mixture coatings): remained attached on all 5 coatings; also recorded: survived on all surfaces | cell shape 24 hours after plating on LN-521 (human ES cells [1]; absence or presence of ROCK inhibitor): spindle or crescent like shape

LN-111: mouse laminin-111 (Invitrogen), indicated as LN-111 if not otherwise stated
survival / attachment of dissociated hES cells 24 hours (one day) after plating (human ES cells [1]): did not survive; also recorded: almost no cells had survived | survival / attachment of dissociated hES cells 24 hours (one day) after plating (human ES cells [1]; listed as mouse laminin-111): almost no cells remained attached

LN-121: human recombinant laminin of α1, β2 and γ1 chains from triple transfected HEK293 cells
survival / attachment of dissociated hES cells 24 hours (one day) after plating (human ES cells [1]): failed to survive

LN-511: human recombinant laminin-511 coating
survival / attachment of dissociated hES cells 24 hours (one day) after plating (human ES cells [1]): did so as single cells; also recorded: very few | survival / attachment of dissociated hES cells 24 hours (one day) after plating (human ES cells [1]; listed as human r-laminin-511): at a less extent | survival / attachment of dissociated hES cells 24 hours (one day) after plating (human ES cells [1]; listed as laminin-511): in most cases | adhesion of human ES cells after 1 hour (human ES cells [2]; O3 medium without any additives, without Y-27632, FIG. 6): roughly the same | spreading of the cells after one hour compared with Matrigel or LN-111 (human ES cells [2]; dissociated hES cells, not shown): clearly better | time hES cells maintain pluripotency and can generate teratomas in SCID mice (human ES and iPS cells): over 3 months | time of self-renewal of mouse ES cells (mouse ES cells): over 5 months

albumin
effect of 2× increase in albumin concentration in mTeSR1 on clonal survival (hES cells): significantly improved clonal survival

human recombinant LN-111: human recombinant laminin of α1, β1 and γ1 chains from triple transfected HEK293 cells
survival / attachment of dissociated hES cells 24 hours (one day) after plating (human ES cells [1]): failed to survive
